Measurements as given in patent US12209102B2, “Heterocyclic compounds and uses thereof” (Kumquat Biosciences Inc., priority 2022, dated 2025).

Legend:
K-Ras G12S = target: T1, K-Ras G12S (Homo sapiens, UniProt P01116, G12S); test: HTRF resonance energy transfer assay, K-Ras G12S / SOS1 interaction; type: biochemical; details: HTRF assay of Example 5; read-out: IC50 against K-Ras G12S
T1 construct: made in house; host or cells: E. coli BL21 (DE3)
Summary of the method: (§1)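 GST-tagged K-Ras (WT or mutant) bound to anti-GST-Eu donor was mixed with His-hSOS1 bound to anti-6His-XL665 acceptor in ~5 mM HEPES pH 7.4, 150 mM NaCl, 1 mM DTT, 0.05% BSA, 0.0025% Igepal. HTRF (ex 337, em 620/665 nm) was read after ~10 min or longer. IC50 came from the 665/620 ratio over duplicates from 10 μM to 0.01 μM.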

SW620 cells = test: Ras cellular assay, growth of cells with K-Ras G12V mutation (CellTiter-Glo); type: cell-based; details: Homo sapiens, SW-620; cell growth, Example 9, G12V mutation; read-out: IC50 against SW620 cells
Method: For example, this assay can be also used to assess a selective growth inhibition of a mutant Ras protein relative to a wildtype, or relative to a different mutant Ras protein.
SW620 (ATCC CCL-227) and Capan-1 (ATCC HTB-79) cell lines comprise a G12V mutation and can be used to assess Ras cellular signaling in vitro, e.g., in response to the compounds herein. SW620 culture medium is prepared with RPMI-1640 and 10% heat-inactivated FBS. Capan-1 culture medium is prepared with RPMI-1640 and 10% heat-inactivated FBS. A CellTiter-Glo (CTG) luminescent based assay (Promega) is used to assess growth of the cells, as a measurement of the ability of the compounds herein to inhibit Ras signaling in the cells. The cells (e.g., 800 per well) are seeded in their respective culture medium in standard tissue culture-treated 384-well format plates (Falcon #08-772-116) or ultra-low attachment surface 384-well format plates (S-Bio #MS-9384WZ). The day after plating, cells are treated with a dilution series (e.g., a 10 point 3-fold dilution series) of the compounds herein (e.g., approximately 40 μL final volume per well). Cell viability can be monitored (e.g., approximately 6 days later) according to the manufacturer's recommended instructions, where the CellTiter-Glo reagent is added (e.g., approximately 10 μL), vigorously mixed, covered, and placed on a plate shaker (e.g., approximately for 20 min) to ensure sufficient cell lysis prior to assessment of luminescent signal. The IC50 values are determined using the four parameter fit. The resulting IC50 value is a measurement of the ability of the compounds herein to reduce cell growth of Ras-driven cells (e.g., tumor cell lines) in vitro and/or in vivo.

K-Ras G12V = target: T2, K-Ras G12V (Homo sapiens, UniProt P01116, G12V); test: HTRF resonance energy transfer assay, K-Ras G12V / SOS1 interaction; type: biochemical; details: HTRF assay of Example 5; read-out: IC50 against K-Ras G12V
T2 construct: made in house; host or cells: E. coli BL21 (DE3)
Summary of the method: as §1

K-Ras WT = target: T3, K-Ras WT (Homo sapiens, UniProt P01116); test: HTRF resonance energy transfer assay, K-Ras WT / SOS1 interaction; type: biochemical; details: HTRF assay of Example 5; read-out: IC50 against K-Ras WT
T3 construct: made in house; host or cells: E. coli BL21 (DE3)
Summary of the method: as §1

K-Ras G12D = target: T4, K-Ras G12D (Homo sapiens, UniProt P01116, G12D); test: HTRF resonance energy transfer assay, K-Ras G12D / SOS1 interaction; type: biochemical; details: HTRF assay of Example 5; read-out: IC50 against K-Ras G12D
T4 construct: made in house; host or cells: E. coli BL21 (DE3)
Summary of the method: as §1

T1 sequence (P01116 1-188 isoform P01116-2 G12S): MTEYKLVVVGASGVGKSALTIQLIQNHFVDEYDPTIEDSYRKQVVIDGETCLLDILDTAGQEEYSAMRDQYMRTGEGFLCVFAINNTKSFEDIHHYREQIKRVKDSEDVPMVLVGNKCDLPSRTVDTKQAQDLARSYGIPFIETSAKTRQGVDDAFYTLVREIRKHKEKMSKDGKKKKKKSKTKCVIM
T2 sequence (P01116 1-188 isoform P01116-2 G12V): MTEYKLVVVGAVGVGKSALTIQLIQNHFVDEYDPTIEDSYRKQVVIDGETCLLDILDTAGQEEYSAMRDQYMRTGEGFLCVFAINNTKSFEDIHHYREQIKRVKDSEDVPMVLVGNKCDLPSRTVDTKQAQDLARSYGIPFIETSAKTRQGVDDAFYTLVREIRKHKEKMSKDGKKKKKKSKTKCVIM
T4 sequence (P01116 1-188 isoform P01116-2 G12D): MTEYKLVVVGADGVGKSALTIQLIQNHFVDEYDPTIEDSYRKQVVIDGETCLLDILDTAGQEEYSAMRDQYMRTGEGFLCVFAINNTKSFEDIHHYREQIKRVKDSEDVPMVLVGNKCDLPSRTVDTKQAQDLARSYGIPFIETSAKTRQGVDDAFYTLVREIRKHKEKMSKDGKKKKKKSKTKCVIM
T3 sequence (P01116 1-188 isoform P01116-2): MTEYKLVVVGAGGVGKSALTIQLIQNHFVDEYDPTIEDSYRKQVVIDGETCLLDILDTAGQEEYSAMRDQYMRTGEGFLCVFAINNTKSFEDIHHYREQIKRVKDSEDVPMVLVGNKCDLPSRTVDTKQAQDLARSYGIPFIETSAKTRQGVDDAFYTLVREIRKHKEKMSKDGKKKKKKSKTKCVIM

Structure (SMILES) | IC50 (K-Ras G12S) [nM] | IC50 (SW620 cells) [µM] | IC50 (K-Ras G12V) [nM] | IC50 (K-Ras WT) [nM] | IC50 (K-Ras G12D) [nM]
CN(CCCN1c2nc(OC[C@@]34CCCN3C[C@H](F)C4)nc3c(F)c(-c4ccc(F)c5sc(N)c(C#N)c45)c(Cl)c(c23)OCC1CC#N)C(=O)[C@H]1CN1 (stereo partly drawn) [Compound 709, (2R)—N-(3-(9-(2-amino-3-cyano-7-fluorobenzo[b]thiophen-4-yl)-8-chloro-5-(cyanomethyl)-10-fluoro-2-(((2R,7aS)-2-fluorotetrahydro-1H-pyrrolizin-7a(5H)-yl)methoxy)-5,6-dihydro-4H-[1,4]oxazepino[5,6,7-de]quinazolin-4-yl)propyl)-N-methylaziridine-2-carboxamide] | < 100 | < 5 | < 100 | < 100 | < 100
N#Cc1c(N)sc2c(F)ccc(-c3c(Cl)c4c5c(nc(OC[C@@]67CCCN6C[C@H](F)C7)nc5c3F)N(CC(F)F)[C@@H](CNC(=O)[C@H]3CN3)CO4)c12 [Compound 1053, (2R)-N-(((5S)-9-(2-amino-3-cyano-7-fluorobenzo[b]thiophen-4-yl)-8-chloro-4-(2,2-difluoroethyl)-10-fluoro-2-(((2R,7aS)-2-fluorotetrahydro-1H-pyrrolizin-7a(5H)-yl)methoxy)-5,6-dihydro-4H-[1,4]oxazepino[5,6,7-de]quinazolin-5-yl)methyl)aziridine-2-carboxamide] | < 100 | < 5 | < 100 | < 100 | < 100
CN(C)C1CCC(N2CCOc3c(Cl)c(-c4ccc(F)c5sc(N)c(C#N)c45)c(F)c4nc(OC[C@@]56CCCN5C[C@H](F)C6)nc2c34)C1 (stereo partly drawn) [Compound 677, 2-amino-4-(8-chloro-4-(3-(dimethylamino)cyclopentyl)-10-fluoro-2-(((2R,7aS)-2-fluorotetrahydro-1H-pyrrolizin-7a(5H)-yl)methoxy)-5,6-dihydro-4H-[1,4]oxazepino[5,6,7-de]quinazolin-9-yl)-7-fluorobenzo[b]thiophene-3-carbonitrile] | < 100 | < 5 | < 100 | < 100 | < 100
N#Cc1c(N)sc2c(F)ccc(-c3c(Cl)c4c5c(nc(OC[C@@]67CCCN6C[C@H](F)C7)nc5c3F)N(CC(F)F)[C@@H](C=C(F)F)CO4)c12 (single isomer, unassigned) [Compound 751] | < 100 | < 5 | < 100 | < 100 | < 100
CC1COc2c(Cl)c(-c3ccc(F)c4sc(N)c(C#N)c34)c(F)c3nc(OC[C@@]45CCCN4C[C@H](F)C5)nc(c23)N1CC(F)F (single isomer, unassigned) [Compound 616] | < 100 | < 5 | < 100 | < 100 | < 100
N#Cc1c(N)sc2c(F)ccc(-c3c(Cl)c4c5c(nc(OC[C@@]67CCCN6C[C@H](F)C7)nc5c3F)N([C@H]3CNC[C@@H]3F)CCO4)c12 [Compound 1085, 2-amino-4-(8-chloro-10-fluoro-4-((3S,4S)-4-fluoropyrrolidin-3-yl)-2-(((2R,7aS)-2-fluorotetrahydro-1H-pyrrolizin-7a(5H)-yl)methoxy)-5,6-dihydro-4H-[1,4]oxazepino[5,6,7-de]quinazolin-9-yl)-7-fluorobenzo[b]thiophene-3-carbonitrile] | < 100 | < 5 | < 100 | < 100 | < 100
CN(C)C(=O)C1CC(N2CCOc3c(Cl)c(-c4ccc(F)c5sc(N)c(C#N)c45)c(F)c4nc(OC[C@@]56CCCN5C[C@H](F)C6)nc2c34)C1 (single isomer, unassigned) [Compound 754] | < 100 | < 5 | < 100 | < 100 | < 100
N#Cc1c(N)sc2c(F)ccc(-c3c(Cl)c4c5c(nc(OC[C@@]67CCCN6C[C@H](F)C7)nc5c3F)N(CC3CCCN3C(=O)C3CN3)CCO4)c12 (stereo partly drawn) [Compound 811, 2-amino-4-(4-((1-(aziridine-2-carbonyl)pyrrolidin-2-yl)methyl)-8-chloro-10-fluoro-2-(((2R,7aS)-2-fluorotetrahydro-1H-pyrrolizin-7a(5H)-yl)methoxy)-5,6-dihydro-4H-[1,4]oxazepino[5,6,7-de]quinazolin-9-yl)-7-fluorobenzo[b]thiophene-3-carbonitrile] | < 100 | < 5 | < 100 | < 100 | < 100

Next, values leading:

IC50 (K-Ras G12S) [nM] | IC50 (SW620 cells) [µM] | IC50 (K-Ras G12V) [nM] | IC50 (K-Ras WT) [nM] | IC50 (K-Ras G12D) [nM] | Structure (SMILES)
< 100 | < 5 | < 100 | < 100 | < 100 | CC(C)[C@H](N)C(=O)N1CCC(N2C[C@H](C)Oc3c(Cl)c(-c4ccc(F)c5sc(N)c(C#N)c45)c(F)c4nc(OC[C@@]56CCCN5C[C@H](F)C6)nc2c34)C1 (stereo partly drawn) [Compound 714, 4-((6S)-4-(1-(L-valyl)pyrrolidin-3-yl)-8-chloro-10-fluoro-2-(((2R,7aS)-2-fluorotetrahydro-1H-pyrrolizin-7a(5H)-yl)methoxy)-6-methyl-5,6-dihydro-4H-[1,4]oxazepino[5,6,7-de]quinazolin-9-yl)-2-amino-7-fluorobenzo[b]thiophene-3-carbonitrile]
< 100 | < 5 | < 100 | < 100 | < 100 | N#Cc1c(N)sc2c(F)ccc(-c3c(Cl)c4c5c(nc(OC[C@@]67CCCN6C[C@H](F)C7)nc5c3F)N(C3CCCC3O)CCO4)c12 (stereo partly drawn) [Compound 808, 2-amino-4-(8-chloro-10-fluoro-2-(((2R,7aS)-2-fluorotetrahydro-1H-pyrrolizin-7a(5H)-yl)methoxy)-4-(2-hydroxycyclopentyl)-5,6-dihydro-4H-[1,4]oxazepino[5,6,7-de]quinazolin-9-yl)-7-fluorobenzo[b]thiophene-3-carbonitrile]
< 100 | < 5 | < 100 | < 100 | < 100 | CC(O)C1COc2c(Cl)c(-c3ccc(F)c4sc(N)c(C#N)c34)c(F)c3nc(OC[C@@]45CCCN4C[C@H](F)C5)nc(c23)N1CC1CCNC1 (stereo partly drawn) [Compound 632, 2-amino-4-(8-chloro-10-fluoro-2-(((2R,7aS)-2-fluorotetrahydro-1H-pyrrolizin-7a(5H)-yl)methoxy)-5-(1-hydroxyethyl)-4-(pyrrolidin-3-ylmethyl)-5,6-dihydro-4H-[1,4]oxazepino[5,6,7-de]quinazolin-9-yl)-7-fluorobenzo[b]thiophene-3-carbonitrile]
